Laboratory results reported in patent publication US7696200B2, “Bicyclic sulfonamide derivatives which are L-CPT1 inhibitors” (Hoffmann-La Roche Inc., priority 2006, dated 2010).

Target: T1, L-CPT1 (human liver CPT1) (Homo sapiens, UniProt P50416)
T1 construct: made in house; host or cells: Pichia pastoris strain X-33 (pGAPZB/pGAPZA), crude cell-free extract
T1 sequence (P50416 1-773): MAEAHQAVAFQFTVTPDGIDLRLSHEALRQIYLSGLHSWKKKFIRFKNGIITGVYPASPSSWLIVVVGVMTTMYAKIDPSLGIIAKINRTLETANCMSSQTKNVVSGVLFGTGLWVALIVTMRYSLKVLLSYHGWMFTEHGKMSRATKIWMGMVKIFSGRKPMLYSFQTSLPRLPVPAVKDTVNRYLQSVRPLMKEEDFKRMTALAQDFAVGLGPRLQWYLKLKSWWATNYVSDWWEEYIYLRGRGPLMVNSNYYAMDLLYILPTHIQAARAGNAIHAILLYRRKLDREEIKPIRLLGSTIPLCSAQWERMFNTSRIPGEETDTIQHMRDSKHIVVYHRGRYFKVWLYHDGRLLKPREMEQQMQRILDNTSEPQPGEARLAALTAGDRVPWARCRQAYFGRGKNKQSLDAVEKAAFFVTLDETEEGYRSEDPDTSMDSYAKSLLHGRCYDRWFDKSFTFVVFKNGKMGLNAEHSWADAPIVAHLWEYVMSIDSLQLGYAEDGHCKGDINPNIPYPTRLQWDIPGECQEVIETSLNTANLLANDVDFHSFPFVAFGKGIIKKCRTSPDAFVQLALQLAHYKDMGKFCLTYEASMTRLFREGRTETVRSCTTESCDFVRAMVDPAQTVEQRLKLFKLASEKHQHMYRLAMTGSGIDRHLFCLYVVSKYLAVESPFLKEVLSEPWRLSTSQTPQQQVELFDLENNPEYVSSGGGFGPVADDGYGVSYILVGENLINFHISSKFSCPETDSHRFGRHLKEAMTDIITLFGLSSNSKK
Assay: L-CPT1 inhibition, spectrophotometric CPT activity assay with DTNB (Ellman's reagent)
Type: biochemical
Details: cell-free extracts of P. pastoris expressing human liver CPT1; carnitine 500 μM, palmitoyl-CoA 80 μM, DTNB 300 μM, pH 7.4
Protocol: The following tests were carried out in order to determine the activity of the compounds of the present invention. Background information on the performed assays can be found in: Jackson et al., 1999, Biochem. J. 341, 483-489 and Jackson et al., 2000, J. Biol. Chem. 275, 19560-19566.
Human liver and muscle CPT1 cDNAs and rat CPT2 cDNA were subcloned in pGAPZB or pGAPZA, respectively. These plasmids were used to transform P. pastoris strain X-33 via electroporation after the preparation of electrocompetent cells. High copy number clones were selected where necessary using 0.5 or 1 mg/ml Zeocin. Cultures for activity measurements were induced for 16 h in YPD medium (1% yeast extract, 2% peptone, 2% glucose). Crude cell extracts were prepared by disrupting the cells with glass beads or French Press, depending on fermenter sizes. After centrifugation, the cell-free extracts were resuspended in cell breaking buffer (50 mM Tris, pH7.4, 100 mM KCl, 1 mM EDTA) in the presence of a protease inhibitor cocktail, before aliquoting and freezing at −20° C.
CPT activity was measured using a spectrophotometric assay using 5,5′-dithio-bis-(2-nitrobenzoic acid) (DTNB) also called Ellman's reagent. The HS-CoA released on the formation of acylcarnitine from carnitine (500 μM) and palmitoyl-CoA (80 μM) reduced DTNB (300 μM) forming 5-mercapto-(2-nitrobenzoic acid) which absorbed at 410 nm with a molar extinction coefficient of 13600 M^−1.cm^−1. The assay buffer contained 120 mM KCl, 25 mM Tris, pH 7.4, 1 mM EDTA. This assay was used for the identification of selective inhibitors of the liver CPT1 isoform versus the muscle CPT1 and CPT2 isoforms.

| SMILES | IC50 [µM] |
| --- | --- |
| COc1ccc(Cl)cc1S(=O)(=O)N1COc2ccc(C(=O)Nc3ccc(C(=O)O)c(F)c3)cc21 [Example 32, 4-{[3-(5-Chloro-2-methoxy-benzenesulfonyl)-2,3-dihydro-benzooxazole-5-carbonyl]-amino}-2-fluoro-benzoic acid] | 0.14 |
| COc1ccc(Cl)cc1S(=O)(=O)N1CCOc2ccc(C(=O)Nc3ccc(C(=O)O)c(F)c3)cc21 [Example 2, 4-{[4-(5-Chloro-2-methoxy-benzenesulfonyl)-3,4-dihydro-2H-benzo[1,4]oxazine-6-carbonyl]-amino}-2-fluoro-benzoic acid] | 0.078 |
| O=C(O)Cc1csc(NC(=O)c2ccc3c(c2)N(S(=O)(=O)c2cccc(Cl)c2)CCO3)n1 [Example 92, (2-{[4-(3-Chloro-benzenesulfonyl)-3,4-dihydro-2H-benzo[1,4]oxazine-6-carbonyl]-amino}-thiazol-4-yl)-acetic acid] | 0.023 |
| COc1ccc(Cl)cc1S(=O)(=O)N1COCc2ccc(C(=O)Nc3ccc(C(=O)O)cc3)cc21 [Example 73, 4-{[1-(5-Chloro-2-methoxy-benzenesulfonyl)-1,4-dihydro-2H-benzo[d][1,3]oxazine-7-carbonyl]-amino}-benzoic acid] | 0.056 |
| COc1ccc(Cl)cc1S(=O)(=O)N1CC(C(=O)O)Oc2ccc(C(=O)Nc3cccc(F)c3)cc21 (centres unmarked) [Example 113, 4-(5-Chloro-2-methoxy-benzenesulfonyl)-6-(3-fluoro-phenylcarbamoyl)-3,4-dihydro-2H-benzo[1,4]oxazine-2-carboxylic acid] | 0.016 |
